Tests used:
Test in all cases: KinaseProfiler off-target kinase profiling
Type in all cases: biochemical
Settings in all cases: 10 μM, ATP near Km
TEC Activated = target: T1, TEC Activated (Homo sapiens, UniProt P42680)
T1 construct: purchased Millipore, Inc. (KinaseProfiler service)
Protocol: (§1) A representative compound of the invention (Example 48) was tested for off-target kinase activity at a concentration of 10 μM by Millipore, Inc. in their KinaseProfiler™ service against all the kinases available in their full kinase panel. The compound was run in duplicate at a concentration of ATP near the Km for each individual kinase according to Millipore's specifications. The results are shown in Table B. Data are reported as percent of control (POC) and are the average of the two replicates.

TAO2 = target: T2, TAO2 (Homo sapiens, UniProt Q9UL54)
T2 construct: purchased Millipore, Inc. (KinaseProfiler service)
Protocol: as §1

CDK7/cyclinH/MAT1 = target: T3, CDK7/cyclinH/MAT1 (Homo sapiens, UniProt P50613)
T3 construct: purchased Millipore, Inc. (KinaseProfiler service)
Protocol: as §1

Hck = target: T4, Hck (Homo sapiens, UniProt P08631)
T4 construct: purchased Millipore, Inc. (KinaseProfiler service)
Protocol: as §1

PDK1 = target: T5, PDK1 (Homo sapiens, UniProt O15530)
T5 construct: purchased Millipore, Inc. (KinaseProfiler service)
Protocol: as §1

Rse = target: T6, Rse (Homo sapiens, UniProt Q06418)
T6 construct: purchased Millipore, Inc. (KinaseProfiler service)
Protocol: as §1

Pim-3 = target: T7, Pim-3 (Homo sapiens, UniProt Q86V86)
T7 construct: purchased Millipore, Inc. (KinaseProfiler service)
Protocol: as §1

Fms = target: T8, Fms (Homo sapiens, UniProt P07333)
T8 construct: purchased Millipore, Inc. (KinaseProfiler service)
Protocol: as §1

TSSK2 = target: T9, TSSK2 (Homo sapiens, UniProt Q96PF2)
T9 construct: purchased Millipore, Inc. (KinaseProfiler service)
T9 sequence (Q96PF2 whole entry): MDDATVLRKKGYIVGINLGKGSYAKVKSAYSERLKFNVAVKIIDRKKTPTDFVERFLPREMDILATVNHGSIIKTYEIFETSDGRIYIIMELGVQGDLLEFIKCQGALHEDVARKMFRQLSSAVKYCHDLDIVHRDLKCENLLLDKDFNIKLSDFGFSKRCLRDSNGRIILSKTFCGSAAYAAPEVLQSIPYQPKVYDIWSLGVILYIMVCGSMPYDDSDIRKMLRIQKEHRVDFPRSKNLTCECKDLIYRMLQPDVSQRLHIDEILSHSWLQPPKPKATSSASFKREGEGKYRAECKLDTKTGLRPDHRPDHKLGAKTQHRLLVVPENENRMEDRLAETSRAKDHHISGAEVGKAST
Protocol: as §1

NLK = target: T10, NLK (Homo sapiens, UniProt Q9UBE8)
T10 construct: purchased Millipore, Inc. (KinaseProfiler service)
Protocol: as §1

TSSK1 = target: T11, TSSK1 (Homo sapiens, UniProt Q9BXA7)
T11 construct: purchased Millipore, Inc. (KinaseProfiler service)
Protocol: as §1

PKCzeta = target: T12, PKCzeta (Homo sapiens, UniProt Q05513)
T12 construct: purchased Millipore, Inc. (KinaseProfiler service)
Protocol: as §1

Rsk1 = target: T13, Rsk1 (Homo sapiens, UniProt Q15418)
T13 construct: purchased Millipore, Inc. (KinaseProfiler service)
Protocol: as §1

Fer = target: T14, Fer (Homo sapiens, UniProt P16591)
T14 construct: purchased Millipore, Inc. (KinaseProfiler service)
Protocol: as §1

NEK11 = target: T15, NEK11 (Homo sapiens, UniProt Q8NG66)
T15 construct: purchased Millipore, Inc. (KinaseProfiler service)
Protocol: as §1

SRPK2 = target: T16, SRPK2 (Homo sapiens, UniProt P78362)
T16 construct: purchased Millipore, Inc. (KinaseProfiler service)
Protocol: as §1

DAPK3 = target: T17, DAPK3 (Homo sapiens, UniProt O43293)
T17 construct: purchased Millipore, Inc. (KinaseProfiler service)
Protocol: as §1

PKCgamma = target: T18, PKCgamma (Homo sapiens, UniProt P05129)
T18 construct: purchased Millipore, Inc. (KinaseProfiler service)
Protocol: as §1

Bmx = target: T19, Bmx (Homo sapiens, UniProt P51813)
T19 construct: purchased Millipore, Inc. (KinaseProfiler service)
Protocol: as §1

CK1gamma3 = target: T20, CK1gamma3 (Homo sapiens, UniProt Q9Y6M4)
T20 construct: purchased Millipore, Inc. (KinaseProfiler service)
Protocol: as §1

AKT2 = target: T21, AKT2 (Homo sapiens, UniProt P31751)
T21 construct: purchased Millipore, Inc. (KinaseProfiler service)
Protocol: as §1

p38delta = target: T22, p38delta (Homo sapiens, UniProt O15264)
T22 construct: purchased Millipore, Inc. (KinaseProfiler service)
Protocol: as §1

SGK3 = target: T23, SGK3 (Homo sapiens, UniProt Q96BR1)
T23 construct: purchased Millipore, Inc. (KinaseProfiler service)
Protocol: as §1

PKCiota = target: T24, PKCiota (Homo sapiens, UniProt P41743)
T24 construct: purchased Millipore, Inc. (KinaseProfiler service)
Protocol: as §1

CK1gamma1 = target: T25, CK1gamma1 (Homo sapiens, UniProt Q9HCP0)
T25 construct: purchased Millipore, Inc. (KinaseProfiler service)
Protocol: as §1

AMPK (A1/B1/G1) = target: T26, AMPK (A1/B1/G1) (Homo sapiens, UniProt Q13131)
T26 construct: purchased Millipore, Inc. (KinaseProfiler service)
Protocol: as §1

PKCbetaII = target: T27, PKCbetaII (Homo sapiens, UniProt P05771)
T27 construct: purchased Millipore, Inc. (KinaseProfiler service)
Protocol: as §1

BrSK1 = target: T28, BrSK1 (Homo sapiens, UniProt Q8TDC3)
T28 construct: purchased Millipore, Inc. (KinaseProfiler service)
Protocol: as §1

Syk = target: T29, Syk (Homo sapiens, UniProt P43405)
T29 construct: purchased Millipore, Inc. (KinaseProfiler service)
Protocol: as §1

Ret = target: T30, Ret (Homo sapiens, UniProt P07949)
T30 construct: purchased Millipore, Inc. (KinaseProfiler service)
Protocol: as §1

CK2alpha2 = target: T31, CK2alpha2 (Homo sapiens, UniProt P19784)
T31 construct: purchased Millipore, Inc. (KinaseProfiler service)
Protocol: as §1

EphB2 = target: T32, EphB2 (Homo sapiens, UniProt P29323)
T32 construct: purchased Millipore, Inc. (KinaseProfiler service)
Protocol: as §1

MRCKalpha = target: T33, MRCKalpha (Homo sapiens, UniProt Q5VT25)
T33 construct: purchased Millipore, Inc. (KinaseProfiler service)
Protocol: as §1

JNK1alpha1 = target: T34, JNK1alpha1 (Homo sapiens, UniProt P45983)
T34 construct: purchased Millipore, Inc. (KinaseProfiler service)
Protocol: as §1

ITK = target: T35, ITK (Homo sapiens, UniProt Q08881)
T35 construct: purchased Millipore, Inc. (KinaseProfiler service)
T35 sequence (Q08881 whole entry): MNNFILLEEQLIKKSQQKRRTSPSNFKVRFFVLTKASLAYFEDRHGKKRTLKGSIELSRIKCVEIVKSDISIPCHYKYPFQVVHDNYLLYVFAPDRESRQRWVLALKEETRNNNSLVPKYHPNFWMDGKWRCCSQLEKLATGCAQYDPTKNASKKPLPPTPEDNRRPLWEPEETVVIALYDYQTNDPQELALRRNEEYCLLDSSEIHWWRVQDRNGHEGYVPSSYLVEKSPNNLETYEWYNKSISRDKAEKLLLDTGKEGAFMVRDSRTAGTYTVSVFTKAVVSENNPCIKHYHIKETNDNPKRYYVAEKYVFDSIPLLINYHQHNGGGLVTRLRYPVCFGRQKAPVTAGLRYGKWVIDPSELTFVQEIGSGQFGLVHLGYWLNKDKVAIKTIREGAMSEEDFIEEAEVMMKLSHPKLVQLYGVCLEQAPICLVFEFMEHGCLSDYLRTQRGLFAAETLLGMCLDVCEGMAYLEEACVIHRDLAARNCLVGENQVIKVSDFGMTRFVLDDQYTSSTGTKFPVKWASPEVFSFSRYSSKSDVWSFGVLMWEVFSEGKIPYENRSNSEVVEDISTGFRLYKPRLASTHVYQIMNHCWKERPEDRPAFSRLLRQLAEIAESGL
Protocol: as §1

Ros = target: T36, Ros (Homo sapiens, UniProt P08922)
T36 construct: purchased Millipore, Inc. (KinaseProfiler service)
T36 sequence (P08922 28-2347): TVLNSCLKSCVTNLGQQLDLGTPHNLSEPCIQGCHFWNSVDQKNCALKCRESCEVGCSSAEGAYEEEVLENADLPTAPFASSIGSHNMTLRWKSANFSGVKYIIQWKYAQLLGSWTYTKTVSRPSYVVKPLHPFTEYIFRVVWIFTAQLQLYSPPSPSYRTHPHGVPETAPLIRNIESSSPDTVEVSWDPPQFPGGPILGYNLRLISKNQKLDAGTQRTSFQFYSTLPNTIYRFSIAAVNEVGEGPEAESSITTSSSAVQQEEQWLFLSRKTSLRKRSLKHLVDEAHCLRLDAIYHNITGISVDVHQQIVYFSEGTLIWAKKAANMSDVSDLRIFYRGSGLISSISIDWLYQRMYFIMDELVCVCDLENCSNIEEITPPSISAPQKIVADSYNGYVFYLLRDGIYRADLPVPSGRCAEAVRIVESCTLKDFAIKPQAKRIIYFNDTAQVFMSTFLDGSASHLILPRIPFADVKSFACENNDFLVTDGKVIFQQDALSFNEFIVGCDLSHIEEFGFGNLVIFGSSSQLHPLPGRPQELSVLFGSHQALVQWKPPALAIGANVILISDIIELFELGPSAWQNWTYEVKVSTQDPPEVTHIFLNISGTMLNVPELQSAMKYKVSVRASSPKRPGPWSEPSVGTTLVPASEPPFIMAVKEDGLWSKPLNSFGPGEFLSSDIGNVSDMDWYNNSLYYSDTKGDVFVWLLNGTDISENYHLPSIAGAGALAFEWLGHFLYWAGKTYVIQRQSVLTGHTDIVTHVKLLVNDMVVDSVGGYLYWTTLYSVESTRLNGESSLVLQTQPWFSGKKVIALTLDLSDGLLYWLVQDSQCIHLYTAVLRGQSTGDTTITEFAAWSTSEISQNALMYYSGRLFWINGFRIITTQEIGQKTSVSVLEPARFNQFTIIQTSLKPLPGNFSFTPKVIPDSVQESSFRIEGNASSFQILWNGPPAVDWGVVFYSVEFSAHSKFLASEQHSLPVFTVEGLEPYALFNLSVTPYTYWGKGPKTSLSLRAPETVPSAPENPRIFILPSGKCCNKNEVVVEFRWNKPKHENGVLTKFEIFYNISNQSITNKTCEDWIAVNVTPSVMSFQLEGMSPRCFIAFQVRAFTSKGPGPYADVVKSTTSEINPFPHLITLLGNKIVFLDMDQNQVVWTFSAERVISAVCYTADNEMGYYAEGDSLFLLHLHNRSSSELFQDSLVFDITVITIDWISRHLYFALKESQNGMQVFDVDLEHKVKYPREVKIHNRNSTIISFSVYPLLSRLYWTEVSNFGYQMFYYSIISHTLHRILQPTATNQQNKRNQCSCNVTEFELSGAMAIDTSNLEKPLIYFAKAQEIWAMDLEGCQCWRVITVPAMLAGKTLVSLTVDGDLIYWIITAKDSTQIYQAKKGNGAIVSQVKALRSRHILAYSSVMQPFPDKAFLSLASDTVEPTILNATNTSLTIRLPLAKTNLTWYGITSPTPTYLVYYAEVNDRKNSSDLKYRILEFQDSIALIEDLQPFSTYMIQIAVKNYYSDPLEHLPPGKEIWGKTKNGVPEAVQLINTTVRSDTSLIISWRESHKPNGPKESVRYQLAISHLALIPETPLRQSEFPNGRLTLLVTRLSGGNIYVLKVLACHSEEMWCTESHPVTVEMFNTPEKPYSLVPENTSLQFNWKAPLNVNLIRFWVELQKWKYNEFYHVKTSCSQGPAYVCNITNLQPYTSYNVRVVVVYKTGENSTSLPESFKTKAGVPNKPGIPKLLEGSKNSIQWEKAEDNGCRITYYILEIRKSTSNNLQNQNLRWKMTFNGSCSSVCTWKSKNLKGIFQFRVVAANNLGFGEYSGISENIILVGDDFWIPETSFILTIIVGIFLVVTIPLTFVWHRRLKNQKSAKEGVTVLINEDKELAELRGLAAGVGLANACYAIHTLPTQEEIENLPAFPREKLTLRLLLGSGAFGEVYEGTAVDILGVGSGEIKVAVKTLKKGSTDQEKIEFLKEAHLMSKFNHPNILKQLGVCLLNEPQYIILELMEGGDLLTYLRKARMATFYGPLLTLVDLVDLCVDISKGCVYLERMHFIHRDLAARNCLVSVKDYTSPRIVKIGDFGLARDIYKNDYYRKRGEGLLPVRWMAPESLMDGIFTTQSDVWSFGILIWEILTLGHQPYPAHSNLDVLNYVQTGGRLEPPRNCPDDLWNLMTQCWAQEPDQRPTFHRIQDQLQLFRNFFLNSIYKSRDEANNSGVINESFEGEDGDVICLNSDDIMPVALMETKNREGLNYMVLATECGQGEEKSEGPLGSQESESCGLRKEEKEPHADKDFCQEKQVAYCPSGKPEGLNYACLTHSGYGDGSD
Protocol: as §1

mTOR = target: T37, mTOR (Homo sapiens, UniProt P42345)
T37 construct: purchased Millipore, Inc. (KinaseProfiler service)
Protocol: as §1

JNK3 = target: T38, JNK3 (Homo sapiens, UniProt P53779)
T38 construct: purchased Millipore, Inc. (KinaseProfiler service)
T38 sequence (P53779 whole entry): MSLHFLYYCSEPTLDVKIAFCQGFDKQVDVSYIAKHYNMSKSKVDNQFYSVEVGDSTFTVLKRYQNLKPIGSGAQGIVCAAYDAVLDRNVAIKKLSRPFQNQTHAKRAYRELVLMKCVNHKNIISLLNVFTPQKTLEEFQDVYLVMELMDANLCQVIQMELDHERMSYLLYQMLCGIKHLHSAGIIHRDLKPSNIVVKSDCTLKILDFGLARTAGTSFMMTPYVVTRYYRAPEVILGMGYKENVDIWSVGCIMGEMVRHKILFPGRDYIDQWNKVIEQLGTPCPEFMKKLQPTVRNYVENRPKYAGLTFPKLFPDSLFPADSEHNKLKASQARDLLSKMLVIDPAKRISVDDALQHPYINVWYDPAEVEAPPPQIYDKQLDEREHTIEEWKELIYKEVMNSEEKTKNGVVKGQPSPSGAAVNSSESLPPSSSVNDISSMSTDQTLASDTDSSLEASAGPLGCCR
Protocol: as §1

CAMK2g = target: T39, CAMK2g (Homo sapiens, UniProt Q13555)
T39 construct: purchased Millipore, Inc. (KinaseProfiler service)
T39 sequence (Q13555 whole entry): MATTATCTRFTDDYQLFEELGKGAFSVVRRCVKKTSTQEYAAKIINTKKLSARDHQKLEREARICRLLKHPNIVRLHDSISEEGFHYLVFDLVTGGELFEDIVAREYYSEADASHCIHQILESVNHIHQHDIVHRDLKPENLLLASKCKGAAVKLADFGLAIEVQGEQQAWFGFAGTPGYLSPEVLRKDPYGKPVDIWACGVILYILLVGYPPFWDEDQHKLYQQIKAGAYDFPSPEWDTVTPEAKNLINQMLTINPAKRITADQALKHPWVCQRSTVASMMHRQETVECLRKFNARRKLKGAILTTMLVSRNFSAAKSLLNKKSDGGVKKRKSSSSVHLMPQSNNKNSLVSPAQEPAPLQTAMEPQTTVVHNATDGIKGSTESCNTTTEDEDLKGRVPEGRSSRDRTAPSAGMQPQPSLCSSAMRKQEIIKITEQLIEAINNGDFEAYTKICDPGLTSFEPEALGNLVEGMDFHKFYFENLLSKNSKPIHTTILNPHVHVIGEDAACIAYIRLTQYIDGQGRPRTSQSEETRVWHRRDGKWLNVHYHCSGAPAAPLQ
Protocol: as §1

EphA1 = target: T40, EphA1 (Homo sapiens, UniProt P21709)
T40 construct: purchased Millipore, Inc. (KinaseProfiler service)
Protocol: as §1

AKT3 = target: T41, AKT3 (Homo sapiens, UniProt Q9Y243)
T41 construct: purchased Millipore, Inc. (KinaseProfiler service)
Protocol: as §1

Structure (SMILES): COCCN1C[C@@H](NC(=O)Nc2sc(C(C)C)nc2-c2ccccc2)[C@H](c2ccccc2)C1 [Example 48, 1-(2-isopropyl-4-phenylthiazol-5-yl)-3-((3S,4R)-1-(2-methoxyethyl)-4-phenylpyrrolidin-3-yl)urea]
- Avg POC (TEC Activated): 94% of control
- Avg POC (TAO2): 100.5% of control
- Avg POC (CDK7/cyclinH/MAT1): 112.5% of control
- Avg POC (Hck): 115.5% of control
- Avg POC (PDK1): 85.5% of control
- Avg POC (Rse): 117% of control
- Avg POC (Pim-3): 140.5% of control
- Avg POC (Fms): 96% of control
- Avg POC (TSSK2): 124% of control
- Avg POC (NLK): 108.5% of control
- Avg POC (TSSK1): 99.5% of control
- Avg POC (PKCzeta): 108% of control
- Avg POC (Rsk1): 121% of control
- Avg POC (Fer): 91.5% of control
- Avg POC (NEK11): 105% of control
- Avg POC (SRPK2): 109% of control
- Avg POC (DAPK3): 91% of control
- Avg POC (PKCgamma): 93.5% of control
- Avg POC (Bmx): 122% of control
- Avg POC (CK1gamma3): 110% of control
- Avg POC (AKT2): 148% of control
- Avg POC (p38delta): 108.5% of control
- Avg POC (SGK3): 82% of control
- Avg POC (PKCiota): 120% of control
- Avg POC (CK1gamma1): 116% of control
- Avg POC (AMPK (A1/B1/G1)): 114.5% of control
- Avg POC (PKCbetaII): 97.5% of control
- Avg POC (BrSK1): 123.5% of control
- Avg POC (Syk): 86.5% of control
- Avg POC (Ret): 125.5% of control
- Avg POC (CK2alpha2): 113% of control
- Avg POC (EphB2): 99.5% of control
- Avg POC (MRCKalpha): 113.5% of control
- Avg POC (JNK1alpha1): 106.5% of control
- Avg POC (ITK): 170.5% of control
- Avg POC (Ros): 111% of control
- Avg POC (mTOR): 99% of control
- Avg POC (JNK3): 106% of control
- Avg POC (CAMK2g): 116% of control
- Avg POC (EphA1): 113.5% of control
- Avg POC (AKT3): 106.5% of control

From patent US9828360B2 (Array BioPharma Inc., priority 2012, dated 2017)
